Data from US20160303095A1, “METHODS OF TREATING HEPATITIS B VIRUS” (Gilead Sciences, Inc., priority 2015, published 2016).

Target: T1, KDM3A (Homo sapiens, UniProt Q9Y4C1)
T1 construct: host or cells: Sf9 cells
T1 sequence (Q9Y4C1 1-1321): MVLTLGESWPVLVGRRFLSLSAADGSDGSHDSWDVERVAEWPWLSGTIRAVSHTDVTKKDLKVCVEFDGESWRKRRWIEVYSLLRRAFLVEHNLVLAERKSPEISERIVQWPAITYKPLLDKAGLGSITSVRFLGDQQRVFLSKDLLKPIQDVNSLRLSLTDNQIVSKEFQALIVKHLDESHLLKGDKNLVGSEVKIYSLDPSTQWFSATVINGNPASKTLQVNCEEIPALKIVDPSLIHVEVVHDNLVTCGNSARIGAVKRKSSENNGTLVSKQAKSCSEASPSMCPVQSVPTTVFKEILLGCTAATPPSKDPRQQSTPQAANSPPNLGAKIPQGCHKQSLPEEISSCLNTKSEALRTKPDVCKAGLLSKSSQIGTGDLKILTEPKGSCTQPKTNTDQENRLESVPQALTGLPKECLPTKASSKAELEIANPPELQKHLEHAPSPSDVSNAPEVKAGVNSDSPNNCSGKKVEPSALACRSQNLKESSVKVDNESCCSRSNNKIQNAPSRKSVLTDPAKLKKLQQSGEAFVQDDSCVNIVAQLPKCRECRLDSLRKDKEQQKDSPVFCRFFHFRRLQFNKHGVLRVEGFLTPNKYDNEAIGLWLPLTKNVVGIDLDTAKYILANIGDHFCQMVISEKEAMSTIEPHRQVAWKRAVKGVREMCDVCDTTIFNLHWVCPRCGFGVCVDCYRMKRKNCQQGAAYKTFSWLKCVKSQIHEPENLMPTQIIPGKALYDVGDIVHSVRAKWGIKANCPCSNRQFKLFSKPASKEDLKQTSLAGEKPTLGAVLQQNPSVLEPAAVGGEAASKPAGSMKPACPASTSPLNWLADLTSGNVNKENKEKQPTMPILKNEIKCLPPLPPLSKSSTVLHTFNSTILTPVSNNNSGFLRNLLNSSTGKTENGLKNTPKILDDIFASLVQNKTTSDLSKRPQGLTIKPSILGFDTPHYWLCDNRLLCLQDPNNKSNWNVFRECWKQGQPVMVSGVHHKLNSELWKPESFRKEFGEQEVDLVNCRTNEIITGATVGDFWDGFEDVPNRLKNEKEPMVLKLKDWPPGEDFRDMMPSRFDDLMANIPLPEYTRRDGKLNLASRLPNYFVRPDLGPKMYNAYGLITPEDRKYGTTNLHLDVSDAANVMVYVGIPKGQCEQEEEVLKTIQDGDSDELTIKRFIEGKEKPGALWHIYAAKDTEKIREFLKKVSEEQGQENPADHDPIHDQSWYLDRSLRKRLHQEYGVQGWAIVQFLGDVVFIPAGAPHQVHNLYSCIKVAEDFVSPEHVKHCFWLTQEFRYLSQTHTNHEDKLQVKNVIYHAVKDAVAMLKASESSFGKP
Test: Biochemical KDM inhibition assay (LANCE), KDM3A
Details: read-out: Biochemical IC50 KDM 3A

Row | SMILES | IC50
1 | Nc1c(C(=O)O)ccnc1C(=O)O [Example 7, reference compound] | 1.2 µM
2 | CCN(CCN(C)C)C(=O)CNCc1cc(C(=O)O)ccn1 [Example 9] | 1.1 µM
3 | Cc1cc(Cl)ccc1COc1ccnn1-c1cc(C(=O)O)ccn1 [Example 11] | 7.5 µM
4 | N#CNC(=O)c1ccncc1Nc1nn(CCN2CCC(F)(F)CC2)c2ccc(F)cc12 [Example 14] | 3.9 µM
5 | CCN(CC)CCCCNCc1cc(C(=O)O)ccn1 [Example 18] | 5.4 µM
